Results published in US20220227737A1, “NOVEL OXALYL PIPERAZINES ACTIVE AGAINST THE HEPATITIS B VIRUS (HBV)” (AiCuris GmbH & Co. KG, priority 2019, published 2022).

Experiments:
[1] = biological target: T1, C-terminal truncated core protein (HBV core dimer, BODIPY-FL labelled) (UniProt P03146); experiment: Biochemical capsid assembly assay (fluorescence quenching)
T1 construct: fused on or other part: One added cysteine at position 150, labelled with BODIPY-FL maleimide; The C-terminal arginine-rich domain is absent
T1 sequence (P03146 whole entry, the tested form may be a part): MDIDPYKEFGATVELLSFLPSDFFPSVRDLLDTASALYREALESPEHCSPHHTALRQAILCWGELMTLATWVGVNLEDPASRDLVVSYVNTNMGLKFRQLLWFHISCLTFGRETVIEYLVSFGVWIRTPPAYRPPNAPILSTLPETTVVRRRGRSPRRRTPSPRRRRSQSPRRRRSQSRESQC
Protocol: Biochemical Capsid Assembly Assay
The screening for assembly effector activity was done based on a fluorescence quenching assay published by Zlotnick et al. (2007). The C-terminal truncated core protein containing 149 amino acids of the N-terminal assembly domain fused to a unique cysteine residue at position 150 and was expressed in E. coli using the pET expression system (Merck Chemicals, Darmstadt). Purification of core dimer protein was performed using a sequence of size exclusion chromatography steps. In brief, the cell pellet from 1 L BL21 (DE3) Rosetta2 culture expressing the coding sequence of core protein cloned NdeI/XhoI into expression plasmid pET21b was treated for 1 h on ice with a native lysis buffer (Qproteome Bacterial Protein Prep Kit; Qiagen, Hilden). After a centrifugation step the supernatant was precipitated during 2 h stirring on ice with 0.23 g/ml of solid ammonium sulfate. Following further centrifugation the resulting pellet was resolved in buffer A (100 mM Tris, pH 7.5; 100 mM NaCl; 2 mM DTT) and was subsequently loaded onto a buffer A equilibrated CaptoCore 700 column (GE HealthCare, Frankfurt). The column flow through containing the assembled HBV capsid was dialyzed against buffer N (50 mM NaHCO3 pH 9.6; 5 mM DTT) before urea was added to a final concentration of 3M to dissociate the capsid into core dimers for 1.5 h on ice. The protein solution was then loaded onto a 1 L Sephacryl 5300 column. After elution with buffer N core dimer containing fractions were identified by SDS-PAGE and subsequently pooled and dialyzed against 50 mM HEPES pH 7.5; 5 mM DTT. To improve the assembly capacity of the purified core dimers a second round of assembly and disassembly starting with the addition of 5 M NaCl and including the size exclusion chromatography steps described above was performed. From the last chromatography step core dimer containing fractions were pooled and stored in aliquots at concentrations between 1.5 to 2.0 mg/ml at −80° C.
Immediately before labelling the core protein was reduced by adding freshly prepared DTT in a final concentration of 20 mM. After 40 min incubation on ice storage buffer and DTT was removed using a Sephadex G-25 column (GE HealthCare, Frankfurt) and 50 mM HEPES, pH 7.5. For labelling 1.6 mg/ml core protein was incubated at 4° C. and darkness overnight with BODIPY-FL maleimide (Invitrogen, Karlsruhe) in a final concentration of 1 mM. After labelling the free dye was removed by an additional desalting step using a Sephadex G-25 column. Labelled core dimers were stored in aliquots at 4° C. In the dimeric state the fluorescence signal of the labelled core protein is high and is quenched during the assembly of the core dimers to high molecular capsid structures. The screening assay was performed in black 384 well microtiter plates in a total assay volume of 10 μl using 50 mM HEPES pH 7.5 and 1.0 to 2.0 μM labelled core protein. Each screening compound was added in 8 different concentrations using a 0.5 log-unit serial dilution starting at a final concentration of 100 μM, 31.6 μM or 10 μM, In any case the DMSO concentration over the entire microtiter plate was 0.5%. The assembly reaction was started by the injection of NaCl to a final concentration of […] which induces the assembly process to approximately 25% of the maximal quenched signal. […] after starting the reaction the fluorescence signal was measured using a Clariostar plate reader (BMG Labtech, Ortenberg) with an excitation of 477 nm and an emission of 525 nm. As 100% and 0% assembly control HEPES buffer containing 2.5 M and 0 M NaCl was used. Experiments were performed thrice in triplicates. EC50 values were calculated by non-linear regression analysis using the Graph Pad Prism 6 software (GraphPad Software, La Jolla, USA).

[2] = system: HBV; experiment: HBV replication assay: HBV DNA from the supernatants of HepAD38 cells; format: cell-based; conditions: Hepatitis B virus, 144 h, HBV DNA in supernatant at day 6, read-out: Cell Activity
Protocol: Determination of HBV DNA from the Supernatants of HepAD38 Cells
The anti-HBV activity was analysed in the stable transfected cell line HepAD38, which has been described to secrete high levels of HBV virion particles (Ladner et al., 1997). In brief, HepAD38 cells were cultured at 37° C. at 5% CO2 and 95% humidity in 200 μl maintenance medium, which was Dulbecco's modified Eagle's medium/Nutrient Mixture F-12 (Gibco, Karlsruhe), 10% fetal bovine serum (PAN Biotech Aidenbach) supplemented with 50 μg/ml penicillin/streptomycin (Gibco, Karlsruhe), 2 mM L-glutamine (PAN Biotech, Aidenbach), 400 μg/ml G418 (AppliChem, Darmstadt) and 0.3 μg/ml tetracycline. Cells were subcultured once a week in a 1:5 ratio, but were usually not passaged more than ten times. For the assay 60,000 cells were seeded in maintenance medium without any tetracycline into each well of a 96-well plate and treated with serial half-log dilutions of test compound. To minimize edge effects the outer 36 wells of the plate were not used but were filled with assay medium. On each assay plate six wells for the virus control (untreated HepAD38 cells) and six wells for the cell control (HepAD38 cells treated with 0.3 μg/ml tetracycline) were allocated, respectively. In addition, one plate set with reference inhibitors like BAY 41-4109, entecavir, and lamivudine instead of screening compounds were prepared in each experiment. In general, experiments were performed thrice in triplicates. At day 6 HBV DNA from 100 μl filtrated cell culture supernatant (AcroPrep Advance 96 Filter Plate, […] Supor membran, PALL GmbH, Dreieich) was automatically purified on the MagNa Pure LC instrument using the MagNA Pure 96 DNA and Viral NA Small Volume Kit (Roche Diagnostics, Mannheim) according to the instructions of the manufacturer. EC50 values were calculated from relative copy numbers of HBV DNA In brief, 5 μl of the 100 μl eluate containing HBV DNA were subjected to PCR LC480 Probes Master Kit (Roche) together with 1 μM antisense primer […], 0.5 μM sense primer […], 0.3 μM hybprobes […]-FL and LC640-[…]-PH (TIBMolBiol, Berlin) to a final volume of […]. The PCR was performed on the Light Cycler 480 real time system (Roche Diagnostics, Mannheim) using the following protocol: Pre-incubation for 1 min at 95° C., amplification: 40 cycles×(10 sec at 95° C., 50 sec at 60° C., 1 sec at 70° C.), cooling for 10 sec at 40° C. Viral load was quantitated against known standards using HBV plasmid DNA of pCH-9/3091 (Nassal et al., 1990, Cell 63: 1357-1363) and the LightCycler 480 SW 1.5 software (Roche Diagnostics, Mannheim) and EC50 values were calculated using non-linear regression with GraphPad Prism 6 (GraphPad Software Inc., La Jolla, USA).

[3] = Cell viability assay (AlamarBlue); conditions: human, HepAD38 cells

| SMILES | IC50 [1] [µM] | EC50 [2] [µM] | CC50 at 6 days [3] [µM] |
| --- | --- | --- | --- |
| O=C(NCC1(O)CCC1)C(=O)N1CCN(C(=O)c2cc3ccccc3[nH]2)CC1 [Example 30, 2-(4-(1H-indole-2-carbonyl)piperazin-1-yl)-N-((1-hydroxycyclobutyl)methyl)-2-oxoacetamide] | < 5 | < 1 | > 100 |
| O=C(NC1CCOC1)C(=O)N1CCN(C(=O)c2cc3ccccc3[nH]2)CC1 (stereo not drawn) [Example 35, 2-(4-(1H-indole-2-carbonyl)piperazin-1-yl)-2-oxo-N-(tetrahydrofuran-3-yl)acetamide] | 5 to 10 | < 1 | > 100 |
| O=C(NCC1(O)CC1)C(=O)N1CCN(C(=O)c2cc3c(F)cc(F)cc3[nH]2)CC1 [Example 53, 2-(4-(4,6-difluoro-1H-indole-2-carbonyl)piperazin-1-yl)-N-((1-hydroxycyclopropyl)methyl)-2-oxoacetamide] | < 5 | < 1 | > 100 |
| CCCCCCNC(=O)C(=O)N1CCN(C(=O)c2cc3ccccc3[nH]2)CC1 [Example 11, 2-(4-(1H-indole-2-carbonyl)piperazin-1-yl)-N-hexyl-2-oxoacetamide] | < 5 | 1 to 10 | > 100 |
| O=C(NCCCCCCO)C(=O)N1CCN(C(=O)c2cc3c(F)cc(F)cc3[nH]2)CC1 [Example 56, 2-(4-(4,6-difluoro-1H-indole-2-carbonyl)piperazin-1-yl)-N-(6-hydroxyhexyl)-2-oxoacetamide] | < 5 | 1 to 10 | > 100 |
| C[C@H](O)CNC(=O)C(=O)N1CCN(C(=O)c2cc3c(F)cc(F)cc3[nH]2)CC1 [Example 58, (S)-2-(4-(4,6-difluoro-1H-indole-2-carbonyl)piperazin-1-yl)-N-(2-hydroxypropyl)-2-oxoacetamide] | < 5 | < 1 | > 100 |
| O=C(NCC1CCOC1)C(=O)N1CCN(C(=O)c2cc3ccccc3[nH]2)CC1 (stereo not drawn) [Example 4, 2-(4-(1H-indole-2-carbonyl)piperazin-1-yl)-2-oxo-N-((tetrahydrofuran-3-yl)methyl)acetamide] | < 100 | 1 to 10 | > 100 |
| O=C(NCCCCO)C(=O)N1CCN(C(=O)c2cc3ccccc3[nH]2)CC1 [Example 29, 2-(4-(1H-indole-2-carbonyl)piperazin-1-yl)-N-(4-hydroxybutyl)-2-oxoacetamide] | < 5 | 1 to 10 | > 100 |
| O=C(NCCCCCO)C(=O)N1CCN(C(=O)c2cc3c(F)cc(F)cc3[nH]2)CC1 [Example 57, 2-(4-(4,6-difluoro-1H-indole-2-carbonyl)piperazin-1-yl)-N-(5-hydroxypentyl)-2-oxoacetamide] | < 5 | 1 to 10 | > 100 |
| CCCCNC(=O)C(=O)N1CCN(C(=O)c2cc3c(F)cccc3[nH]2)CC1 [Example 26, N-butyl-2-(4-(4-fluoro-1H-indole-2-carbonyl)piperazin-1-yl)-2-oxoacetamide] | < 5 | < 1 | > 100 |
| CCC(CCO)CNC(=O)C(=O)N1CCN(C(=O)c2cc3c(F)cc(F)cc3[nH]2)CC1 (stereo not drawn) [Example 59, 2-(4-(4,6-difluoro-1H-indole-2-carbonyl)piperazin-1-yl)-N-(2-ethyl-4-hydroxybutyl)-2-oxoacetamide] | < 5 | < 1 | > 100 |
| COC1(CNC(=O)C(=O)N2CCN(C(=O)c3cc4ccccc4[nH]3)CC2)CC1 [Example 13, 2-(4-(1H-indole-2-carbonyl)piperazin-1-yl)-N-((1-methoxycyclopropyl)methyl)-2-oxoacetamide] | 5 to 10 | < 1 | > 100 |
| CCCCNC(=O)C(=O)N1CCN(C(=O)c2cc3c(F)cc(F)cc3[nH]2)CC1 [Example 9, N-butyl-2-(4-(4,6-difluoro-1H-indole-2-carbonyl)piperazin-1-yl)-2-oxoacetamide] | < 5 | < 1 | > 100 |
| CCCCNC(=O)C(=O)N1CCN(C(=O)c2cc3cccc(F)c3[nH]2)CC1 [Example 25, N-butyl-2-(4-(7-fluoro-1H-indole-2-carbonyl)piperazin-1-yl)-2-oxoacetamide] | < 5 | < 1 | > 100 |
| CC(C)(O)CNC(=O)C(=O)N1CCN(C(=O)c2cc3ccccc3[nH]2)CC1 [Example 32, 2-(4-(1H-indole-2-carbonyl)piperazin-1-yl)-N-(2-hydroxy-2-methylpropyl)-2-oxoacetamide] | < 5 | < 1 | > 100 |
| O=C(NCC1(CO)CC1)C(=O)N1CCN(C(=O)c2cc3ccccc3[nH]2)CC1 [Example 31, 2-(4-(1H-indole-2-carbonyl)piperazin-1-yl)-N-((1-(hydroxymethyl)cyclopropyl)methyl)-2-oxoacetamide] | 5 to 10 | < 1 | > 100 |
| CCCCNC(=O)C(=O)N1CCN(C(=O)c2cc3ccc(F)cc3[nH]2)CC1 [Example 23, N-butyl-2-(4-(6-fluoro-1H-indole-2-carbonyl)piperazin-1-yl)-2-oxoacetamide] | < 5 | < 1 | > 100 |
| O=C(NCC1(CO)CC1)C(=O)N1CCN(C(=O)c2cc3c(F)cc(F)cc3[nH]2)CC1 [Example 55, 2-(4-(4,6-difluoro-1H-indole-2-carbonyl)piperazin-1-yl)-N-((1-(hydroxymethyl)cyclopropyl)methyl)-2-oxoacetamide] | < 5 | < 1 | > 100 |
